In patent US20090054392A1, “NAPHTHYLPYRIMIDINE, NAPHTHYLPYRAZINE AND NAPHTHYLPYRIDAZINE ANALOGS AND THEIR USE AS AGONISTS OF THE WNT-BETA-CATENIN CELLULAR MESSAGING SYSTEM” (Wyeth, priority 2007, published 2009):

System: Dkk1-LRP5-TCF-Luciferase
Test: Functional Dkk1-LRP5-TCF-Luciferase Assay in U2OS Cells
Conditions: for fold induction at 2 µM / fold induction at 20 µM / EC50: Homo sapiens, U2OS; for fold induction at 2 µM: read-out: B = TCF ACTIVITY/DMSO CONTROL Fold induction @ 2.0 uM, 2.0 uM compound; for fold induction at 20 µM: read-out: C = TCF ACTIVITY/DMSO CONTROL Fold induction @ 20.0 uM, 20.0 uM compound; for A = MAX FOLD Induction/DMSO CONTROL: maximum fold induction over DMSO control
Experimental: Biological Evaluation—Functional Dkk1-LRP5-TCF-Luciferase Assay in U2OS Cells
Frozen U2OS-Dkk1-HTS Reporter cells generation: U2OS Human Bone derived cells (Osteosarcoma) are grown in McCoy's 5A Medium (Modified), with L -glutamine (GIBCO Cat No. 16600-082)+1% Pen-Strep+5% FBS) plated at 1×10^7 cells/T175 cm flask. The next day, the cells are co-transfected overnight with the following plasmids: (a) Test reporter (16×TCF-TK-FireFly-Luci), (b) Internal Control Reporter (TK-Renilla-Luci), (c) Wnt3a and (d) Dkk1. GIBCO's Lipofectamine 2000 and OptiMEM are used for the transfection. After a minimum of 4 hr of transfection at 37° C., the plasmid-transfected cells are trypsinized, counted, and suspended in freezing medium (95% FBS+5% DMSO). The reporter cells are frozen at 1×10^7/ml concentrations, aliquoted into 0.5 ml or 2.5 ml/tube and stored at 70° C.
The following day, test compounds are added under HTS setup by Plate Track into 384 well plates (white, TC treated, Falcon plate) such that the final concentration of the compounds in 20 μL/well cell will be 5 μg/ml (final concentration of DMSO=0.25% and final compound concentration=20 μM). Vials of frozen reporter cells are thawed by warming the vial in a 37° C. water bath for 60-120 seconds with some shaking until the cells formed a suspension. The thawed cells are transferred into a cold 50 ml (or larger) tube and mixed well by gentle pipetting. The appropriate amount of cold Phenol Red Free RPMI medium-1640 (GIBCO, Cat #11835-030) with L-glutamine is added, both with ˜5% FBS (GIBCO-BRL, Cat. #16000-044), so that 20 μl of the final cell suspension will contain ˜5,000 cells. The cell dilution is done such that the final concentration of FBS is ˜5%.
Diluted cells (20 μl) are added into each well in a 384 well plate. The plate is incubated at 37° C. under 5% CO2 for ˜20 h. Bright-Glo substrate, 2.5 μl/well is added, and the Fire Fly Luciferase is measured using VLUX (60 second exposure) immediately after the substrate is added. Test compounds are dissolved in DMSO (100%) and added to specified wells. Raw luciferase signal data obtained as relative luminescence units (RLUs) for the test compounds are normalized to the signal of the mean of the sample reporter cell plate with DMSO.

With CCNC(=O)NC1CCCN(c2nccc(-c3ccc4ccccc4c3)n2)CC1 (stereo not drawn) [N-ethyl-N′-{1-[4-(2-naphthyl)pyrimidin-2-yl]azepan-4-yl}urea] the fold induction at 2 µM was 2.33, the fold induction at 20 µM was 2.56 and the “A = MAX FOLD Induction/DMSO CONTROL” value was 1.320 fold.

With CCNC(=O)N[C@H]1CCN(c2nccc(-c3ccc4ccccc4c3)n2)C1 [N-ethyl-N′-{(3S)-1-[4-(2-naphthyl)pyrimidin-2-yl]pyrrolidin-3-yl}urea] the fold induction at 2 µM was 1.03 and the fold induction at 20 µM was 0.6.

CC(C)CNc1nccc(-c2ccc3ccccc3c2)n1 [N-isobutyl-4-(2-naphthyl)pyrimidin-2-amine] showed a fold induction at 2 µM of 1.77.

CC(C)Nc1nccc(-c2ccc3ccccc3c2)n1 [N-isopropyl-4-(2-naphthyl)pyrimidin-2-amine] showed a fold induction at 2 µM of 1.64.

For CC(C)NC(=O)N1CCC(CNc2nccc(-c3ccc4ccccc4c3)n2)CC1 [N-isopropyl-4-({[4-(2-naphthyl)pyrimidin-2-yl]amino}methyl)piperidine-1-carboxamide], the fold induction at 2 µM was 1.31 and the fold induction at 20 µM was 0.54.

In the case of CC(C)NC(=O)N1CCC(Nc2nccc(-c3ccc4ccccc4c3)n2)CC1 [N-isopropyl-4-{[4-(2-naphthyl)pyrimidin-2-yl]amino}piperidine-1-carboxamide], the fold induction at 2 µM is reported as 1.07 and the fold induction at 20 µM is reported as 1.37.

Compound CC(C)N(C)CCN(C)[C@@H]1CCN(c2nccc(-c3ccc4ccccc4c3)n2)C1 [N-isopropyl-N,N′-dimethyl-N′-{(3R)-1-[4-(2-naphthyl)pyrimidin-2-yl]pyrrolidin-3-yl}ethane-1,2-diamine] has a fold induction at 2 µM of 2.2.

For CC(C)NC(=O)NCCC1CCN(c2nccc(-c3ccc4ccccc4c3)n2)CC1 [N-isopropyl-N′-(2-{1-[4-(2-naphthyl)pyrimidin-2-yl]piperidin-4-yl}ethyl)urea], the fold induction at 2 µM was 1.46 and the fold induction at 20 µM was 1.58.

CC(C)NC(=O)NCCN1CCN(c2nccc(-c3ccc4ccccc4c3)n2)CC1 [N-isopropyl-N′-(2-{4-[4-(2-naphthyl)pyrimidin-2-yl]piperazin-1-yl}ethyl)urea] was tested, and the fold induction at 2 µM was 1.06 and the fold induction at 20 µM was 0.1.

CC(C)NC(=O)N[C@@H]1CCN(c2nccc(-c3ccc4ccccc4c3)n2)C1 [N-isopropyl-N′-{(3R)-1-[4-(2-naphthyl)pyrimidin-2-yl]pyrrolidin-3-yl}urea] was tested, and the fold induction at 2 µM was 1.19 and the fold induction at 20 µM was 1.09.

Compound CC(C)NC(=O)N[C@H]1CCN(c2nccc(-c3ccc4ccccc4c3)n2)C1 [N-isopropyl-N′-{(3S)-1-[4-(2-naphthyl)pyrimidin-2-yl]pyrrolidin-3-yl}urea] has a fold induction at 2 µM of 1.12 and a fold induction at 20 µM of 0.79.

With CNC(=O)[C@H]1CCCN1c1nccc(-c2ccc3ccccc3c2)n1 [N-methyl-1-[4-(2-naphthyl)pyrimidin-2-yl]-D-prolinamide] the fold induction at 2 µM was 1.13 and the fold induction at 20 µM was 1.32.

With CNCC1CCN(c2nccc(-c3ccc4ccccc4c3)n2)CC1 [N-methyl-1-{1-[4-(2-naphthyl)pyrimidin-2-yl]piperidin-4-yl}methanamine] the fold induction at 2 µM was 1.49, the fold induction at 20 µM was 0.01 and the “A = MAX FOLD Induction/DMSO CONTROL” value was 2.840 fold.

CNC[C@H]1CCN(c2nccc(-c3ccc4ccccc4c3)n2)C1 [N-methyl-1-{(3R)-1-[4-(2-naphthyl)pyrimidin-2-yl]pyrrolidin-3-yl}methanamine] was tested, and the fold induction at 2 µM was 2.76, the fold induction at 20 µM was 0.01 and the “A = MAX FOLD Induction/DMSO CONTROL” value was 1.030 fold.

CNC[C@@H]1CCN(c2nccc(-c3ccc4ccccc4c3)n2)C1 [N-methyl-1-{(3S)-1-[4-(2-naphthyl)pyrimidin-2-yl]pyrrolidin-3-yl}methanamine] gave an EC50 of 2350 nM, a fold induction at 2 µM of 2.74 and a fold induction at 20 µM of 0.503. For the same compound, the “A = MAX FOLD Induction/DMSO CONTROL” value was 4.773 fold.

CCCN1CCC(N(C)c2nccc(-c3ccc4ccccc4c3)n2)CC1 [N-methyl-4-(2-naphthyl)-N-(1-propylpiperidin-4-yl)pyrimidin-2-amine] showed a fold induction at 2 µM of 1.74.

CN(c1nccc(-c2ccc3ccccc3c2)n1)C1CCN(c2ncccn2)CC1 [N-methyl-4-(2-naphthyl)-N-(1-pyrimidin-2-ylpiperidin-4-yl)pyrimidin-2-amine] showed a fold induction at 2 µM of 1.7.

Work on CN(c1nccc(-c2ccc3ccccc3c2)n1)C1CCN(C(=O)N2CCCC2)CC1 [N-methyl-4-(2-naphthyl)-N-[1-(pyrrolidin-1-ylcarbonyl)piperidin-4-yl]pyrimidin-2-amine] yielded a fold induction at 2 µM of 1.81.

In the case of CN(c1nccc(-c2ccc3ccccc3c2)n1)C1CCN(C(=O)C(F)(F)F)CC1 [N-methyl-4-(2-naphthyl)-N-[1-(trifluoroacetyl)piperidin-4-yl]pyrimidin-2-amine], the fold induction at 2 µM is reported as 1.03 and the fold induction at 20 µM is reported as 1.06.

Compound CN(c1nccc(-c2ccc3ccccc3c2)n1)C1CCNCC1 [N-methyl-4-(2-naphthyl)-N-piperidin-4-ylpyrimidin-2-amine] has an EC50 of 1800 nM, a fold induction at 2 µM of 2.65 and a fold induction at 20 µM of 1.35. The “A = MAX FOLD Induction/DMSO CONTROL” value was 2.320 fold.

CN(c1nccc(-c2ccc3ccccc3c2)n1)C1CCN(CCOC(c2ccccc2)(c2ccccc2)c2ccccc2)CC1 [N-methyl-4-(2-naphthyl)-N-{1-[2-(trityloxy)ethyl]piperidin-4-yl}pyrimidin-2-amine] gave a fold induction at 2 µM of 1.14 and a fold induction at 20 µM of 1.02.

Compound CNc1nccc(-c2ccc3ccccc3c2)n1 [N-methyl-4-(2-naphthyl)pyrimidin-2-amine] has a fold induction at 2 µM of 1.34.

With CN(CC1CCN(c2nccc(-c3ccc4ccccc4c3)n2)CC1)C1CCCCC1 [N-methyl-N-({1-[4-(2-naphthyl)pyrimidin-2-yl]piperidin-4-yl}methyl)cyclohexanamine] the fold induction at 2 µM was 2.87, the fold induction at 20 µM was 0.03 and the “A = MAX FOLD Induction/DMSO CONTROL” value was 2.160 fold.

CN(C[C@H]1CCN(c2nccc(-c3ccc4ccccc4c3)n2)C1)C1CCCCC1 [N-methyl-N-({(3R)-1-[4-(2-naphthyl)pyrimidin-2-yl]pyrrolidin-3-yl}methyl)cyclohexanamine] was tested, and the fold induction at 2 µM was 1.27 and the fold induction at 20 µM was 1.6.

In the case of CN(C[C@@H]1CCN(c2nccc(-c3ccc4ccccc4c3)n2)C1)C1CCCCC1 [N-methyl-N-({(3S)-1-[4-(2-naphthyl)pyrimidin-2-yl]pyrrolidin-3-yl}methyl)cyclohexanamine], the fold induction at 2 µM is reported as 1.37, the fold induction at 20 µM is reported as 2.27 and the “A = MAX FOLD Induction/DMSO CONTROL” value is reported as 3.720 fold.

Work on CN(c1nccc(-c2ccc3ccccc3c2)n1)C1CCN(S(C)(=O)=O)CC1 [N-methyl-N-[1-(methylsulfonyl)piperidin-4-yl]-4-(2-naphthyl)pyrimidin-2-amine] yielded a fold induction at 2 µM of 1.24 and a fold induction at 20 µM of 0.77.

CC(=O)N(C)CCN(C)[C@@H]1CCN(c2nccc(-c3ccc4ccccc4c3)n2)C1 [N-methyl-N-[2-(methyl{(3R)-1-[4-(2-naphthyl)pyrimidin-2-yl]pyrrolidin-3-yl}amino)ethyl]acetamide] gave a fold induction at 20 µM of 4.4.

In the case of CN(CCN(C)[C@@H]1CCN(c2nccc(-c3ccc4ccccc4c3)n2)C1)C(=O)c1ccccc1 [N-methyl-N-[2-(methyl{(3R)-1-[4-(2-naphthyl)pyrimidin-2-yl]pyrrolidin-3-yl}amino)ethyl]benzamide], the fold induction at 2 µM is reported as 1.3.

With CN(CCN(C)S(=O)(=O)c1ccccc1)[C@@H]1CCN(c2nccc(-c3ccc4ccccc4c3)n2)C1 [N-methyl-N-[2-(methyl{(3R)-1-[4-(2-naphthyl)pyrimidin-2-yl]pyrrolidin-3-yl}amino)ethyl]benzenesulfonamide] the fold induction at 20 µM was 1.4.

CCS(=O)(=O)N(C)CCN(C)[C@@H]1CCN(c2nccc(-c3ccc4ccccc4c3)n2)C1 [N-methyl-N-[2-(methyl{(3R)-1-[4-(2-naphthyl)pyrimidin-2-yl]pyrrolidin-3-yl}amino)ethyl]ethanesulfonamide] was tested, and the fold induction at 20 µM was 1.3.

Work on CN(CCN(C)S(C)(=O)=O)[C@@H]1CCN(c2nccc(-c3ccc4ccccc4c3)n2)C1 [N-methyl-N-[2-(methyl{(3R)-1-[4-(2-naphthyl)pyrimidin-2-yl]pyrrolidin-3-yl}amino)ethyl]methanesulfonamide] yielded a fold induction at 20 µM of 1.9.

CCC(=O)N(C)CCN(C)[C@@H]1CCN(c2nccc(-c3ccc4ccccc4c3)n2)C1 [N-methyl-N-[2-(methyl{(3R)-1-[4-(2-naphthyl)pyrimidin-2-yl]pyrrolidin-3-yl}amino)ethyl]propanamide] was tested, and the fold induction at 20 µM was 2.5.

Cc1ccc(S(=O)(=O)N2CCC(N(C)c3nccc(-c4ccc5ccccc5c4)n3)CC2)cc1 [N-methyl-N-{1-[(4-methylphenyl)sulfonyl]piperidin-4-yl}-4-(2-naphthyl)pyrimidin-2-amine] showed a fold induction at 2 µM of 1.65.

In the case of CC(=O)N(C)[C@@H]1CCN(c2nccc(-c3ccc4ccccc4c3)n2)C1 [N-methyl-N-{(3R)-1-[4-(2-naphthyl)pyrimidin-2-yl]pyrrolidin-3-yl}acetamide], the EC50 is reported as 10000 nM, the fold induction at 2 µM is reported as 1.55 and the fold induction at 20 µM is reported as 2.71. The “A = MAX FOLD Induction/DMSO CONTROL” value was 2.285 fold.

CC(=O)N(C)[C@H]1CCN(c2nccc(-c3ccc4ccccc4c3)n2)C1 [N-methyl-N-{(3S)-1-[4-(2-naphthyl)pyrimidin-2-yl]pyrrolidin-3-yl}acetamide] showed an EC50 of 2150 nM, a fold induction at 2 µM of 2.38 and a fold induction at 20 µM of 2.89. For the same compound, the “A = MAX FOLD Induction/DMSO CONTROL” value was 2.533 fold.

CC(C)(C)NC(=O)[C@H]1CCCN1c1nccc(-c2ccc3ccccc3c2)n1 [N-tert-butyl-1-[4-(2-naphthyl)pyrimidin-2-yl]-D-prolinamide] showed a fold induction at 2 µM of 1.16 and a fold induction at 20 µM of 0.6.

CC(C)(C)NC(=O)[C@@H]1CCCN1c1nccc(-c2ccc3ccccc3c2)n1 [N-tert-butyl-1-[4-(2-naphthyl)pyrimidin-2-yl]-L-prolinamide] showed a fold induction at 2 µM of 1.94.

CC(=O)NC1CCCN(c2nccc(-c3ccc4ccccc4c3)n2)CC1 (stereo not drawn) [N-{1-[4-(2-naphthyl)pyrimidin-2-yl]azepan-4-yl}acetamide] was tested, and the fold induction at 2 µM was 1.26, the fold induction at 20 µM was 2.91 and the “A = MAX FOLD Induction/DMSO CONTROL” value was 1.350 fold.
